From US20250313535A1, “ALPHA 4 BETA 7 INTEGRIN MODULATORS AND USES THEREOF” (DICE MOLECULES SV, INC., priority 2022, published 2025)
Where two headings read alike, the source gives them in different places.

Assays:
[1] = target: α4β7 integrin (Homo sapiens (Human), UniProt P13612+P26010); test: Integrin Adhesion Assay: Protocol 4 (MAdCAM-coated plate, RPMI-8866 cells with stable LOF mutation of the ITGB1 gene); format: cell-based
Procedure, shortened: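 RPMI-8866 cells with CRISPR/Cas9 knockout of ITGB1 (2×10^6/mL) were added to MAdCAM-coated wells with compound (1% DMSO) in HEPES/NaCl buffer with 1 mM MnCl2, 0.1 mM CaCl2 and 1% BSA, then incubated 1 h at 37 °C. After four washes, adherent cells were quantified by CellTiter-Glo luminescence. Percent inhibition versus DMSO and control compound was fitted to 4-parameter curves.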

[2] = target: α4β1 integrin (Homo sapiens (Human), UniProt P05556+P13612); test: Integrin Adhesion Assay: Protocol 5 (VCAM-coated plate, RPMI-8866 cells with stable LOF mutation of the ITGB7 gene); format: cell-based
Chain of α4β1 integrin (P13612 34-1032): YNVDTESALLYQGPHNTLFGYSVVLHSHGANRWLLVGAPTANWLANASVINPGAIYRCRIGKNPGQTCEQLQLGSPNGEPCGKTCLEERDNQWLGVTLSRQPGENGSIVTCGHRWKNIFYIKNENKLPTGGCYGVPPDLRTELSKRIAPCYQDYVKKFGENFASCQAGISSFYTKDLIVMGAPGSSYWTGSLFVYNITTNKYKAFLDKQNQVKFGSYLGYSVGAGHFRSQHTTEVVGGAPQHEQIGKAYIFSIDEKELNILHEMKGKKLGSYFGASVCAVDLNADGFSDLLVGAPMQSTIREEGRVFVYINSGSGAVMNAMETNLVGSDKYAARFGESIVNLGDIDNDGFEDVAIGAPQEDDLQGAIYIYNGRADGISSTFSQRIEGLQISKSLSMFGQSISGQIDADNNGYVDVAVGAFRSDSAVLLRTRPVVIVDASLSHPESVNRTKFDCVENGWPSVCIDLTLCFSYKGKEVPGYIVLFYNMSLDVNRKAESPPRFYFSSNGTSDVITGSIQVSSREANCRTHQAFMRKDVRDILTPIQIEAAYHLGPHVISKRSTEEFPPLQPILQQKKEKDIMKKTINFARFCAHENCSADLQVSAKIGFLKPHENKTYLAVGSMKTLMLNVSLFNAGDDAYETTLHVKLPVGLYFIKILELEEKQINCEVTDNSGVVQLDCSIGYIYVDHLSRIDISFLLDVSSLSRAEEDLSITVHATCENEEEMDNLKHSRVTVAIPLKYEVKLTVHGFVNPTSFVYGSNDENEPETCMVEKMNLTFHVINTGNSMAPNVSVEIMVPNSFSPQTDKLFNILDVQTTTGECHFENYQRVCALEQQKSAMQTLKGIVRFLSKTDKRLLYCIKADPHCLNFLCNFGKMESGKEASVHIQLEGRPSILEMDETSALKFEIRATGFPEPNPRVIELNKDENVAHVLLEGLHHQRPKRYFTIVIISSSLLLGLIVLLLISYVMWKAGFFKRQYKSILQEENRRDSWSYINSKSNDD
Chain of α4β1 integrin (P05556 21-798): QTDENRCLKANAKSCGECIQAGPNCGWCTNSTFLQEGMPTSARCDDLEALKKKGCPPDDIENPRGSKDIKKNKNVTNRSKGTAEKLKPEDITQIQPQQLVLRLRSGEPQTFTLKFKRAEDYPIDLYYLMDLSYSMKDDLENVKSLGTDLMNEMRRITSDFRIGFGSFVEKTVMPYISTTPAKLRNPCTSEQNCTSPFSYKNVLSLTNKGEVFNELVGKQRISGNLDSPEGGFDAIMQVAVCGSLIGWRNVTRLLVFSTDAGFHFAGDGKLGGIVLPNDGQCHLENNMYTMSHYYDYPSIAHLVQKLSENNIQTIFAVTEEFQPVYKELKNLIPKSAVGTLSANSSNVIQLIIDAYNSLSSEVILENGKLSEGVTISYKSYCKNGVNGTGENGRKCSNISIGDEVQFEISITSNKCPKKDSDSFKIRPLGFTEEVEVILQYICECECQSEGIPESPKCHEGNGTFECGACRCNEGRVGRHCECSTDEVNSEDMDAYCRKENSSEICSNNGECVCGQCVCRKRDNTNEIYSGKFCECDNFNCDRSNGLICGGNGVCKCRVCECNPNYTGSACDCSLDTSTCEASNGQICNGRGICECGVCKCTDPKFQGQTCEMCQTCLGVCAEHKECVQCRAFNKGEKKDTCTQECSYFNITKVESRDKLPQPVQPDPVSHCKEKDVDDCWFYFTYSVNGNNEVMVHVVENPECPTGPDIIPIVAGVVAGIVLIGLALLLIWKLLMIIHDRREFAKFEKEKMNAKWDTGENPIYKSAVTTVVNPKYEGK
Procedure, shortened: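 RPMI-8866 B cells with CRISPR/Cas9 ITGB7 knockout (clonal, verified by flow cytometry) adhered to VCAM-coated wells for 1 h at 37° C in HEPES/NaCl buffer with 1 mM MnCl2, 0.1 mM CaCl2, 1% BSA, 1% DMSO. Bound cells quantified by CellTiter-Glo luminescence after washing; % inhibition versus DMSO and control, 4-parameter fit.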

[3] = Protocol 4, RPMI-8866 cells with LOF mutation of ITGB1, MAdCAM, read-out: Mean IC50 α4β7 KO
[4] = Protocol 5, RPMI-8866 cells with LOF mutation of ITGB7, VCAM, read-out: Mean IC50 α4β1 KO
[5] = RPMI-8866 cells with stable LOF mutation of the ITGB1 gene, read-out: Mean IC50 α4β7 KO^a
[6] = RPMI-8866 cells with stable LOF mutation of the ITGB7 gene, read-out: Mean IC50 α4β1 KO^b

Chain of α4β7 integrin (P13612 34-1032): as the sequence (P13612 34-1032) above
Chain of α4β7 integrin (P26010 20-798): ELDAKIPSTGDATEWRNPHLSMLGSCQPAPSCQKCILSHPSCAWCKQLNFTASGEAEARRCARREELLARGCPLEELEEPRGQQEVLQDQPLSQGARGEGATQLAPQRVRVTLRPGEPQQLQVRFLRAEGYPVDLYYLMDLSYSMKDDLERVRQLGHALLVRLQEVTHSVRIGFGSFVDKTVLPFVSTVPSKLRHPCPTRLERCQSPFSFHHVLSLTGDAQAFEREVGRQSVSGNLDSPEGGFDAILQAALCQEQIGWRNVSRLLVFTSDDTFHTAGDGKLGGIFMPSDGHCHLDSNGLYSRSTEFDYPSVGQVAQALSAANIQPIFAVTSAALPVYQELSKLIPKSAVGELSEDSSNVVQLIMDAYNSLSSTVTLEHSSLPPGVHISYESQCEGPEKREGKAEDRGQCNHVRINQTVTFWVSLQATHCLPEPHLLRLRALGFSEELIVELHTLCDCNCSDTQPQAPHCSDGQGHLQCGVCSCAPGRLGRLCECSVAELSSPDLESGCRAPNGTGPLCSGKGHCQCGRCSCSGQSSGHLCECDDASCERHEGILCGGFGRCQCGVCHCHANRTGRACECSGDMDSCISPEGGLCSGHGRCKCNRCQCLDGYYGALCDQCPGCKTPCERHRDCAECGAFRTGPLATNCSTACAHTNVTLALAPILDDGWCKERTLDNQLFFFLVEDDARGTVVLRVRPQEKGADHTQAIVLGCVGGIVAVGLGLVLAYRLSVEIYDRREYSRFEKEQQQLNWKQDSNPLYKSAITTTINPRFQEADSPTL

IC50 [1, 3]	IC50 [2, 4]	IC50 [1, 5]	IC50 [2, 6]	SMILES
< 10 nM	> 1000 nM			COc1cc(C(F)(F)F)cc(CN2CCCCC2)c1-c1cccc2c(C[C@H](NC(=O)c3c(C)cccc3F)C(=O)O)cccc12 [Compound 1009]
< 10 nM	100 to 1000 nM			CC[C@H]1CCCCN1Cc1cnc(-c2cccc3c(C[C@H](NC(=O)C4(C(F)(F)F)CCN(CC(F)F)CC4)C(=O)O)cccc23)c2ccccc12 [Compound 930]
		< 10 nM	100 to 1000 nM	COc1cc2c(c(OC)c1-c1cccc3c(C[C@H](NC(=O)C4(C(F)(F)F)CCN(CC(F)(F)F)CC4)C(=O)O)cccc13)CN(C)CC2 [Compound 474]
		< 10 nM	100 to 1000 nM	COc1ccc(CN(C)CCF)c(OC)c1-c1cccc2c(C[C@H](NC(=O)c3c(C)cccc3F)C(=O)O)cccc12 [Compound 636]
		< 10 nM	100 to 1000 nM	CCc1cccc(F)c1C(=O)N[C@@H](Cc1cccc2c(-c3c(CN4CCCCC4)cccc3OC)cccc12)C(=O)O [Compound 546]
		10 to 100 nM	> 1000 nM	Cn1c(=O)c(-c2cccc3c(C[C@H](NC(=O)C4(C(F)(F)F)CCN(C5CCOCC5)CC4)C(=O)O)cccc23)c(C(F)(F)F)c2ccccc21 [Compound 504]
10 to 100 nM	> 1000 nM			O=C(O)[C@H](Cc1cccc2c(-c3ccc(CN4CCCCC4)cn3)cccc12)NC(=O)C1(C(F)(F)F)CCN(CC(F)F)CC1 [Compound 896]
< 10 nM	100 to 1000 nM			COc1ccc(CN2CC3C(C2)C3(C)C)c(OC)c1-c1cccc2c(C[C@H](NC(=O)C3(C(F)(F)F)CCN(CC(F)(F)F)CC3)C(=O)O)cccc12 (stereo partly drawn) [Compound 817]
10 to 100 nM	> 1000 nM			COc1cc(C(F)(F)F)c(CN2CCCCC2)cc1-c1cccc2c(C[C@H](NC(=O)c3c(C)cccc3F)C(=O)O)cccc12 [Compound 1025]
		10 to 100 nM	> 1000 nM	COc1ccc(CN2C(C)CCC2C)c(OC)c1-c1cccc2c(C[C@H](NC(=O)c3c(C)cccc3F)C(=O)O)cccc12 (stereo partly drawn) [Compound 635]
< 10 nM	> 1000 nM			O=C(O)[C@H](Cc1cccc2c(-c3ncc(CN4CCCCC4)cc3C3CC3)cccc12)NC(=O)C1(C(F)(F)F)CCN(CC(F)F)CC1 [Compound 898]
100 to 1000 nM	> 1000 nM			Cc1cccc(F)c1C(=O)N[C@@H](Cc1cccc2c(-c3cccc4c3OCC4)cccc12)C(=O)O [Compound 1002]
		< 10 nM	100 to 1000 nM	O=C(O)[C@H](Cc1cccc2c(-c3ncc(CN4CCCCC4)c4ccccc34)cccc12)NC(=O)C1(C(F)(F)F)CCN([C@H]2COCC2(F)F)CC1 [Compound 680]
< 10 nM	100 to 1000 nM			CC[C@@H]1CCCCN1Cc1cnc(-c2cccc3c(C[C@H](NC(=O)C4(C(F)(F)F)CCN(CC(F)(F)F)CC4)C(=O)O)cccc23)c2ccccc12 [Compound 931]
10 to 100 nM	> 1000 nM			COc1ccc2ccccc2c1-c1cccc2c(C[C@H](NC(=O)C3(C(F)(F)F)CCN(CC(F)(F)F)CC3)C(=O)O)cccc12 [Compound 765]
< 10 nM	> 1000 nM			COc1ccc(CN2CCC(C(C)(C)C)CC2)c(OC)c1-c1cccc2c(C[C@H](NC(=O)C3(C(F)(F)F)CCN(CC(F)(F)F)CC3)C(=O)O)cccc12 [Compound 818]
		10 to 100 nM	> 1000 nM	CCCN1CCC(C(=O)N[C@@H](Cc2cccc3c(-c4c(C(F)(F)F)c5ccccc5n(C)c4=O)cccc23)C(=O)O)(C(F)(F)F)CC1 [Compound 535]
		10 to 100 nM	> 1000 nM	O=C(O)[C@H](Cc1cccc2c(-c3c(C(F)(F)F)ccc4cccnc34)cccc12)NC(=O)C1(C(F)(F)F)CCN(CC(F)(F)F)CC1 [Compound 524]
< 10 nM	> 1000 nM			O=C(O)[C@H](Cc1cccc2c(-c3ncc(CN4CC5(CC5)C4)c4ccccc34)cccc12)NC(=O)C1(C(F)(F)F)CCN(CC(F)(F)F)CC1 [Compound 887]
		< 10 nM	100 to 1000 nM	COc1ccc(CN2CCC(C)(C)CC2)c(C(F)(F)F)c1-c1cccc2c(C[C@H](NC(=O)c3c(C)cccc3F)C(=O)O)cccc12 [Compound 658]
< 10 nM	100 to 1000 nM			CC1(C)CCN(Cc2ccc(-c3cccc4c(C[C@H](NC(=O)C5(C(F)(F)F)CCN(CC(F)(F)F)CC5)C(=O)O)cccc34)c3cnccc23)CC1 [Compound 986]
10 to 100 nM	> 1000 nM			O=C(O)[C@H](Cc1cccc2c(-c3nccc4ccccc34)cccc12)NC(=O)C1(C(F)(F)F)CCN(CC(F)(F)F)CC1 [Compound 723]

IC50 [1, 3]	IC50 [2, 4]	IC50 [1, 5]	IC50 [2, 6]	SMILES
10 to 100 nM	10 to 100 nM			Cn1c(=O)c(-c2cccc3c(C[C@H](NC(=O)C4(C(F)(F)F)CCN(CC(F)F)CC4)C(=O)O)cccc23)c(C(F)(F)F)c2cc(CN3CCC(F)(F)CC3)ccc21 [Compound 836]
10 to 100 nM	> 1000 nM			COc1cc(C(F)(F)F)c(CN2CCCCC2)cc1-c1cccc2c(C[C@H](NC(=O)C3(C(F)(F)F)CCN(CC(F)(F)F)CC3)C(=O)O)cccc12 [Compound 832]
		< 10 nM	10 to 100 nM	Cn1c(=O)c(-c2cccc3c(C[C@H](NC(=O)C4(C(F)(F)F)CCN(C5COC5)CC4)C(=O)O)cccc23)c(C(F)(F)F)c2ccccc21 [Compound 432]
10 to 100 nM	100 to 1000 nM			COc1ccc(CCN2CCC(F)(F)CC2)c(C(F)(F)F)c1-c1cccc2c(C[C@H](NC(=O)C3(C(F)(F)F)CCN(CC(F)(F)F)CC3)C(=O)O)cccc12 [Compound 850]
		< 10 nM	100 to 1000 nM	Cn1c(=O)c(-c2cccc3c(C[C@H](NC(=O)C4(C(F)(F)F)CCN(CCF)CC4)C(=O)O)cccc23)c(C(F)(F)F)c2ccccc21 [Compound 530]
< 10 nM	> 1000 nM			COc1cc(CN2CCC(C)(C)CC2)cnc1-c1cccc2c(C[C@H](NC(=O)C3(C(F)(F)F)CCN(CC(F)(F)F)CC3)C(=O)O)cccc12 [Compound 890]
10 to 100 nM	> 1000 nM			COc1cc(CN2CCC(C(F)(F)F)CC2)cnc1-c1cccc2c(C[C@H](NC(=O)c3c(C)cccc3F)C(=O)O)cccc12 [Compound 996]
< 10 nM	> 1000 nM			O=C(O)[C@H](Cc1cccc2c(-c3ccc(CN4CCC(F)CC4)c4ccncc34)cccc12)NC(=O)C1(C(F)(F)F)CCN(CC(F)(F)F)CC1 [Compound 987]
		10 to 100 nM	> 1000 nM	O=C(O)[C@H](Cc1cccc2c(-c3ncc(CN4CCCCC4)c4ccccc34)cccc12)NC(=O)C1(C(F)(F)F)CCNCC1 [Compound 550]
< 10 nM	100 to 1000 nM			COc1cccc(CCN2CCCC(C)(C)C2)c1-c1cccc2c(C[C@H](NC(=O)C3(C(F)(F)F)CCN(CC(F)(F)F)CC3)C(=O)O)cccc12 [Compound 961]
10 to 100 nM	> 1000 nM			O=C(O)[C@H](Cc1cccc2c(-c3ncc(CN4CCC[C@@H](F)C4)c4ccccc34)cccc12)NC(=O)C1(C(F)(F)F)CCN(CC(F)(F)F)CC1 [Compound 855]
		< 10 nM	100 to 1000 nM	COc1ccc(CN2CCC(c3ccccc3)CC2)c(OC)c1-c1cccc2c(C[C@H](NC(=O)c3c(C)cccc3F)C(=O)O)cccc12 [Compound 570]
< 10 nM	> 1000 nM			COc1cc(CCN2CCCCC2)ccc1-c1cccc2c(C[C@H](NC(=O)c3c(C)cccc3F)C(=O)O)cccc12 [Compound 740]
< 10 nM	100 to 1000 nM			COc1ccc2c(c1-c1cccc3c(C[C@H](NC(=O)c4c(C)cccc4F)C(=O)O)cccc13)CCN(C)C2 [Compound 998]
< 10 nM	> 1000 nM			CC[C@@H]1CCCN1Cc1cnc(-c2cccc3c(C[C@H](NC(=O)C4(C(F)(F)F)CCN(CC(F)(F)F)CC4)C(=O)O)cccc23)c2ccccc12 [Compound 935]
10 to 100 nM	> 1000 nM			COc1ccc(CN2CCC(F)(F)C2)c(OC)c1-c1cccc2c(C[C@H](NC(=O)C3(C(F)(F)F)CCN(CC(F)(F)F)CC3)C(=O)O)cccc12 [Compound 783]
		10 to 100 nM	> 1000 nM	CN(C)Cc1cc(-c2cccc3c(C[C@H](NC(=O)C4(C(F)(F)F)CCN(CC(F)(F)F)CC4)C(=O)O)cccc23)c2cnccc2c1 [Compound 618]
< 10 nM	> 1000 nM			COc1cccc(CCN2CCC[C@@H](F)C2)c1-c1cccc2c(C[C@H](NC(=O)c3c(C)cccc3F)C(=O)O)cccc12 [Compound 1036]
< 10 nM	100 to 1000 nM			COc1ccc(CN2CCC(F)CC2)cc1-c1cccc2c(C[C@H](NC(=O)C3(C(F)(F)F)CCN(CC(F)F)CC3)C(=O)O)cccc12 [Compound 940]
		< 10 nM	100 to 1000 nM	COc1ccc(CN2CCCCC2)c(OC)c1-c1cccc2c(C[C@H](NC(=O)c3c(F)cccc3Br)C(=O)O)cccc12 [Compound 665]
		< 10 nM	100 to 1000 nM	COc1ccc(CN2CCCCC2)c(C(F)(F)F)c1-c1cccc2c(C[C@H](NC(=O)C3(C(F)(F)F)CCN(CC(F)(F)F)CC3)C(=O)O)cccc12 [Compound 564]
		< 10 nM	100 to 1000 nM	COc1ccc(CN2CCOCC2)c(OC)c1-c1cccc2c(C[C@H](NC(=O)c3c(C)cccc3F)C(=O)O)cccc12 [Compound 650]

SMILES	IC50 [1, 3]	IC50 [2, 4]	IC50 [1, 5]	IC50 [2, 6]
O=C(O)[C@H](Cc1cccc2c(-c3ncc(CN4CC5CC(C4)O5)c4ccccc34)cccc12)NC(=O)C1(C(F)(F)F)CCN(CC(F)(F)F)CC1 [Compound 867]	< 10 nM	> 1000 nM		
